Data as given in patent US20090298903A1, “USE OF TETRAMIC ACID DERIVATIVES FOR INSECT CONTROL” (priority 2006, published 2009).

Columns and labels:
Type in all cases: in vivo
Thrips palmi [1] = experiment: Example 4: aubergines against Thrips palmi; details: nymphs on leaves, (I-4) (240 SC + 0.2% rapeseed oil methyl ester) 0.0096 % a.s.; for Efficacy (% Abbott) 7 d after treatm. 3 / Efficacy (% Abbott) 14 d after treatm. 3 / Efficacy (% Abbott) 21 d after treatm. 3: Imidacloprid 0.01 % a.s.; for Efficacy (% Abbott) 4 d after treatm. 2: Imidacloprid (100 SL) 0.01 % a.s., three applications
Description: Plots 10 m^2 in size which are planted with aubergines cv. “Dumaguete Long Purple” are treated, in three replications, against Thrips palmi. The application is effected with a knapsack sprayer which is operated with pressurized air. Here, the active substance Example (I-4) (240 SC), in a tank mix together with 0.2% a.s. rapeseed oil methyl ester […] and the commercial standard Imidacloprid (100 SL), is tested at the specified application rates. The water application rate is 400 l/ha. Three applications are carried out at intervals of 8 and 7 days, respectively.
The test is evaluated in each case 4 days after treatment 2 and 7, 14 and 21 days after treatment 3 by scoring the destruction of the nymphs on the leaves.

Thrips palmi [2] = experiment: Example 9: cucumbers against Thrips palmi; details: for Efficacy (% Abbott) 3 d: 3 d after treatment 1, nymphs on leaves, Imidacloprid (100 SL) 100, (I-4) (240 SC + 0.2% rapeseed oil methyl ester) 72 g a.s./ha, two applications, interval 8 days; for Efficacy (% Abbott) 8 d: 8 d after treatment 1, Imidacloprid 100, (I-4) 72 g a.s./ha; for Efficacy (% Abbott) 11 d: 11 d after treatment 1, Imidacloprid 100, (I-4) 72 g a.s./ha; for Efficacy (% Abbott) 15 d: 15 d after treatment 1, Imidacloprid 100, (I-4) 72 g a.s./ha
Description: Plots approximately 10 m^2 in size which are planted with cucumbers are treated, in three replications, against Thrips palmi. The application is carried out with a knapsack sprayer which is operated with pressurized air. Here, the active substance Example (I-4) (240 SC), in a tank mix with 0.2% a.s. rapeseed oil methyl ester (500 EW) and the commercial standard Imidacloprid (100 SL), is applied at the specified application rates. The application is carried out with a water application rate of […]. Two applications are carried out at an interval of 8 days.
The test is evaluated 3, 8, 11 and 15 days after treatment 1 by scoring the destruction rate of the animals (nymphs) on the leaves.

Empoasca biguttula = experiment: Example 12: cotton against Empoasca biguttula; details: for Efficacy (% H + T) 3 d: 3 d after second treatment, Henderson and Tilton, Imidacloprid (SL 100) 30, (I-4) (240 SC + 0.2% rapeseed oil methyl ester) 24, Buprofezin (WP50) 50 g a.s./ha; for Efficacy (% H + T) 7 d: 7 d after second treatment; for Efficacy (% H + T) 7 d / Efficacy (% H + T) 14 d / Efficacy (% H + T) 21 d: Imidacloprid 30, (I-4) 24, Buprofezin 50 g a.s./ha; for Efficacy (% H + T) 14 d: 14 d after second treatment; for Efficacy (% H + T) 21 d: 21 d after second treatment
Description: Plots 10 m^2 in size which are planted with cotton are treated, in three replications, against Empoasca biguttula. The application is carried out with a knapsack sprayer operated with pressurized air. Here, the active substance Example (I-4) (240 SC), in a tank mix with 0.2% a.s. rapeseed oil methyl ester (500 EW), is tested against the commercial standards Imidacloprid (SL 100) and Buprofezin (WP50) at the specified application rates. Two applications are carried out at an interval of 7 days. The water application rate is 750 l/ha.
The test is evaluated 3, 7, 14 and 21 days after the second treatment by counting the live animals. Thereafter, the efficacy is calculated in percent, using the formula of Henderson and Tilton.

Dalbulus maidis = experiment: Example 13: dwarf beans against Dalbulus maidis; details: nymphs on leaves, all 96 g a.s./ha; for Efficacy (% Abbott) 7 d: 7 d after second treatment, 240 SC + 0.1% rapeseed oil methyl ester, Imidacloprid 200 SL; for Efficacy (% Abbott) 11 d: 11 d after second treatment
Description: Plots approx. 10 m^2 in size which are planted with dwarf beans cv. “Carioquinha” are treated, in three replications, against Dalbulus maidis. The application is carried out with a knapsack sprayer which is operated with pressurized air. Here, the active substances Example (I-4) (240 SC) and Example (I-9) (240 SC), in a tank mix with 0.1% a.s. rapeseed oil methyl ester (500 EW) and the commercial standard Imidacloprid (200 SL), are applied at the specified application rates. Two applications are carried out at an interval of 7 days, using a water application rate of 300 l/ha.
The test is evaluated 7 and 11 days after the second treatment by scoring the destruction rate of the animals (nymphs) on the leaves.

[3] = tested on: olive fruit fly (Dacus oleae); experiment: Example 22B: laboratory experiment, olives against olive fruit fly; details: olives treated three days after oviposition; Imidacloprid (200 SL) 0.01 %, (I-4) (100 OD) 0.02 %, Fenthion (500 EC) 0.05 %; untreated 84.4
Description: In a laboratory experiment, 40 olives are treated, in four replications, against the olive fruit fly (Dacus oleae) three days after oviposition. Here, the active substance (I-4) (100 OD) and the commercial standards Fenthion (500 EC) and Imidacloprid (200 SL) are tested at the specified application rates.
The test is evaluated 14 days after oviposition by counting the number of feeding tunnels (larval development completed), while the absence of such feeding tunnels indicates the efficacy against the larvae.

Lema melanopa = experiment: Example 25: winter wheat against Lema melanopa; details: 3 days after the last of two treatments (interval 7 days), larvae, Calypso (240 OD) 72, (I-4) (240 SC + 0.2% rapeseed oil methyl ester) 96 g a.s./ha
Description: Plots approx. 25 m^2 in size which are planted with winter wheat cv. “Capfem” are treated, in four replications, against Lema melanopa. The application is carried out with a knapsack sprayer which is operated with pressurized air. Here, the active substance Example (I-4) (240 SC), in a tank mix together with 0.2% a.s. rapeseed oil methyl ester (500 EW) and the commercial standard Calypso (240 OD), is applied at the specified application rates. Two applications are carried out at an interval of 7 days, with a water application rate of 350 l/ha.
The test is evaluated 3 days after the last treatment by scoring the destruction rate of the larvae on the plants.

sawflies Hoplocampa sp. = experiment: Example 31: apple trees against sawflies; details: 57 d after treatment, larvae on fruits, Thiacloprid (SC 480) 48 + deltamethrin 3.75 tank mix, (I-4) (150 OD) 48 g a.s./ha/m crown level
Description: Apple trees cv. “Holsteiner Cox” in plots approx. 20 m^2 in size are treated, in 4 replications, against sawflies Hoplocampa sp. Here, the active substance Example (I-4) (150 OD) at the specified application rate is tested against a tank mix of the commercial standards Thiacloprid (SC 480) and Deltamethrin-liquid in the specified application rates. The application is carried out with a knapsack sprayer. Here, the treatment is effected with a water application rate of 500 l/ha/m crown level.
The test is evaluated 57 days after the treatment by scoring the destruction of the larvae on the fruits with the aid of the Abbott method.

Row | Structure (SMILES) | Efficacy (% Abbott) 7 d after treatm. 3 (Thrips palmi [1]) | Efficacy (% Abbott) 14 d after treatm. 3 (Thrips palmi [1]) | Efficacy (% Abbott) 21 d after treatm. 3 (Thrips palmi [1]) | Efficacy (% Abbott) 4 d after treatm. 2 (Thrips palmi [1]) | Efficacy (% Abbott) 3 d (Thrips palmi [2]) | Efficacy (% Abbott) 8 d (Thrips palmi [2]) | Efficacy (% Abbott) 11 d (Thrips palmi [2]) | Efficacy (% Abbott) 15 d (Thrips palmi [2]) | Efficacy (% H + T) 3 d (Empoasca biguttula) | Efficacy (% H + T) 7 d (Empoasca biguttula) | Efficacy (% H + T) 14 d (Empoasca biguttula) | Efficacy (% H + T) 21 d (Empoasca biguttula) | Efficacy (% Abbott) 7 d (Dalbulus maidis) | Efficacy (% Abbott) 11 d (Dalbulus maidis) | Number of feeding tunnels (%) 14 days after oviposition [3] | Efficacy (% Abbott) 10 d (Lema melanopa) | Efficacy (%) Abbott 57 d (sawflies Hoplocampa sp.)
1 | CCOC(=O)OC1=C(c2cc(C)ccc2C)C(=O)N[C@]12CC[C@@H](OC)CC2 [Example (I-4)] | 75.0 % Abbott | 82.8 % Abbott | 90.6 % Abbott | 82.9 % Abbott | 64.5 % Abbott | 91.0 % Abbott | 80.4 % Abbott | 70.1 % Abbott | 92.1 % H + T | 92.9 % H + T | 84.4 % H + T | 72.6 % H + T | 73 % Abbott | 69 % Abbott | 3.1% | 82.1 % Abbott | 98%
2 | O=[N+]([O-])NC1=NCCN1Cc1ccc(Cl)nc1 [Imidacloprid] | 75.0 % Abbott | 62.1 % Abbott | 53.1 % Abbott | 82.9. % Abbott | 85.3 % Abbott | 85.5 % Abbott | 91.7 % Abbott | 77.1 % Abbott | 97.3 % H + T | 99.6 % H + T | 95.6 % H + T | 72.5 % H + T | 82 % Abbott | 74 % Abbott | 11.9% |  | 
